Measured values taken from paper PMC9315260, “Diarylamine-Guided Carboxamide Derivatives: Synthesis, Biological Evaluation, and Potential Mechanism of Action” (Frontiers in Chemistry, 2022).
Entries after “also recorded” stand apart in the source; their conditions may differ.

What was measured:
CDK1/A2 = CDK1/A2 (Homo sapiens, UniProt P06493); assay: ADP-GLO kinase inhibitory assay, CDK1/A2; format: biochemical
Method: (§1) Based on the aforementioned results for the potential mechanism of action, the kinase inhibitory profile of compounds C6 and C11 were screened at two dose concentration of 10 and 1 µM over a panel of 15 kinases, and the kinase inhibitory activities are listed in supporting information (Supplementary Table S1).
(§2) The kinase inhibitory profile of compounds C6 and C11 were screened at two dose concentration of 10 and 1 µM over a panel of 15 kinases, and each assay was repeated twice. All the inhibitory assays were carried out through kinase profiling services provided by HY Biotech (Chinese), in which ADP-GLO kinase assays were used.
as §2, with “10 µM” for “10”

A875 cells [1] = assay: LDH release (cellular necrosis); format: cell-based, human; conditions: 24 h after treatment
Method: From the preliminary analysis of apoptosis, the results encourage us to further investigate the type of cell death induced by the potential compounds (C6 and C11). As we know, the release of LDH is a typical characteristic feature of necrotic cell death, and so which was detected.
A875 cells grown in 96-well plates were treated with serial dilutions of each tested compound for 24 h. The culture media were collected, and the concentrations of LDH were determined based on our previous research ([Huang et al., 2021]).
A875 cells grown in 96-well plates were treated with serial dilutions of each tested compound for 24 h. The culture media were collected, and the concentrations of LDH were determined with an LDH assay kit according to the manufacturer’s instructions (Abcam).

AURORA = assay: ADP-GLO kinase inhibitory assay, AURORA; format: biochemical
Method: as §1, §2
as §2, with “10 µM” for “10”

PDK1 = biological target: T1, PDK1 (Homo sapiens, UniProt O15530); assay: ADP-GLO kinase inhibitory assay, PDK1; format: biochemical
T1 sequence (O15530 1-556): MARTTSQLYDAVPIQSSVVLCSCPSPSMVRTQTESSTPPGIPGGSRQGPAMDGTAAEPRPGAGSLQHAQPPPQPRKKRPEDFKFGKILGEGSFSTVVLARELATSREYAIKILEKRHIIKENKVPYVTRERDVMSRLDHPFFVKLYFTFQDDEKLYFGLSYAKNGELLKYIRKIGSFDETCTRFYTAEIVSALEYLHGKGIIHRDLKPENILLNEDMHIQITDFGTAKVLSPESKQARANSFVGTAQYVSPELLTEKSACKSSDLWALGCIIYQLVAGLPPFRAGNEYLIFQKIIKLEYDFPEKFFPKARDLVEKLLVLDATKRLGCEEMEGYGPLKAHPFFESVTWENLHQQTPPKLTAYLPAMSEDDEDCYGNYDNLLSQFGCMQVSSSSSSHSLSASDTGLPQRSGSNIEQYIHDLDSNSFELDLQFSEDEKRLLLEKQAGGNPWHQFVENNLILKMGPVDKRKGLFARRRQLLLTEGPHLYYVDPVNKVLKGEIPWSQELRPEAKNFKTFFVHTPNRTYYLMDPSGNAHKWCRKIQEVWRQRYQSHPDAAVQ
Method: as §1, §2
as §2, with “10 µM” for “10”

PLK1 = PLK1 (Homo sapiens, UniProt P53350); assay: ADP-GLO kinase inhibitory assay, PLK1; format: biochemical
Method: as §1, §2
as §2, with “10 µM” for “10”

[2] = test system: SGC-7901, A875, HepG2 and MARC145 cell lines; assay: MTT in vitro cytotoxicity assay, statements over the whole cell panel; format: cell-based; conditions: for cytotoxic effect / inhibition activity in words: IC50-based judgement, compared with 5-FU; for inhibition activity in preliminary screening, in words: at 100 µM, inhibition rate higher than control 5-FU
Method: The lead molecules A2 and all newly prepared diarylamine derivatives B1-13 and C1-11 were evaluated for their in vitro cytotoxic effects against SGC-7901, A875, HepG2 and MARC145 cell lines by the classical MTT [3-(4,5-dimethylthiazol-2-yl)-2,5-diphenyl tetrazolium bromide] assay ([Alley et al., 1988]; [Ke et al., 2012]; [Shi et al., 2012]; [Yu et al., 2015]; [Ke et al., 2019]; [Xu et al., 2019]; [Huang et al., 2021]) using 5-FU (5-Fluorouracil) as a control.
The cytotoxicity of target compounds was determined with MTT assay ([Alley et al., 1988]; [Ke et al., 2012]; [Shi et al., 2012]; [Yu et al., 2015]; [Ke et al., 2019]; [Xu et al., 2019]; [Huang et al., 2021]). SGC-7901, A875, HepG2 and MARC145 cell lines were obtained from Hubei Biopesticide Engineering Research Centre. All data of the experiment were analyzed with SPSS software, and all assay were performed in triplicate on three independent experiments, and measurement data were expressed as the mean ± S.D.
The in vitro cytotoxicity of the synthesized compounds against different cell lines (SGC-7901, A875, HepG2 and MARC145) was measured with MTT assay. All the data of the experiment were analyzed with SPSS software, and the 50% inhibitory concentrations (IC50) of each compound for the different cell lines were determined. A control was run for each test, and all assays were performed in triplicate on three independent experiments, and measurement data were expressed as the mean ± S.D.

PIM1 = PIM1 (Homo sapiens, UniProt P11309); assay: ADP-GLO kinase inhibitory assay, PIM1; format: biochemical
Method: as §1, §2
as §2, with “10 µM” for “10”

A875 cells [3] = assay: Annexin V-FITC/PI dual staining flow cytometry; format: cell-based, human; conditions: for apoptotic rate: 24 h, 2×IC50 concentration, FITC(+)PI(−); for apoptosis induction, in words: 24 h treatment
Method: Apoptosis induction is one of the important modes of action for antitumor drugs.
Quantitative analysis of apoptotic and necrotic cell death induced by potential molecules was investigated using Annexin V-FITC/PI dual staining assay ([Yu et al., 2015]; [Huang et al., 2021]).
Quantitative analysis of apoptotic and necrotic cell death induced by the test compounds was performed by Annexin V-FITC apoptosis detection kit according to the manufacturer’s instructions (Abcam). Briefly, 2×10^5 A875 cells were seeded in 6-well plates and grown overnight. […] Cells treated with 0.1% DMSO were served as solvent control. Following treatment cells were harvested, washed twice with ice-cold PBS and resuspended in binding buffer. Then the cells were stained by adding 5 µl of Annexin V-FITC and 5 µl of propidium iodide, sit for 5 min at room temperature in the dark and analyzed by flow cytometry (Beckman coulter FC500).

RIPK3 = RIPK3 (Homo sapiens, UniProt Q9Y572); assay: ADP-GLO kinase inhibitory assay, RIPK3; format: biochemical
Method: as §1, §2
as §2, with “10 µM” for “10”

Sequence of PIM1 (P11309 whole entry, species assumed): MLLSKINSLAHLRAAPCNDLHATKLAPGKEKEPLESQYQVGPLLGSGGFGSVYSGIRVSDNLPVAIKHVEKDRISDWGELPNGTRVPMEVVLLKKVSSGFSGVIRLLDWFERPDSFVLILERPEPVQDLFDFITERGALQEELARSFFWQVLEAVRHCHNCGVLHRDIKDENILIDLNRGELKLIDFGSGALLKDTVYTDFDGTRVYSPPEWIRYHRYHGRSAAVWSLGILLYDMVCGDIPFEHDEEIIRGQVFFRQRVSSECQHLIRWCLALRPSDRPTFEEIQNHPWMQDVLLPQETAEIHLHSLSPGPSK
Sequence of RIPK3 (Q9Y572 whole entry, species assumed): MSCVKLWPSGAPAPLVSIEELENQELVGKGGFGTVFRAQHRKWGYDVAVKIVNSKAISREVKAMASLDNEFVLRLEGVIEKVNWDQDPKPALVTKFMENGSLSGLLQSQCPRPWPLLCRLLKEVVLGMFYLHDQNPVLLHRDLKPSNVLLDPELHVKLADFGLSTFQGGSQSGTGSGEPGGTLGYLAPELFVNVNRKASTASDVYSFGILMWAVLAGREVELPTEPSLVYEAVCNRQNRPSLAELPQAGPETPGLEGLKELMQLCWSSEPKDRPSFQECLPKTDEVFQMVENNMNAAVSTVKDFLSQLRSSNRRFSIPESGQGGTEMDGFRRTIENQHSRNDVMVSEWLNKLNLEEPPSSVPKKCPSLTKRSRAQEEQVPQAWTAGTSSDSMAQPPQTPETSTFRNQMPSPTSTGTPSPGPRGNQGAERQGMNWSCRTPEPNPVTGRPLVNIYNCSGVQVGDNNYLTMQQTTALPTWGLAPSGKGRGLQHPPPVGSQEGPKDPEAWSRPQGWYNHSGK
Sequence of CDK1/A2 (P06493 whole entry, species assumed): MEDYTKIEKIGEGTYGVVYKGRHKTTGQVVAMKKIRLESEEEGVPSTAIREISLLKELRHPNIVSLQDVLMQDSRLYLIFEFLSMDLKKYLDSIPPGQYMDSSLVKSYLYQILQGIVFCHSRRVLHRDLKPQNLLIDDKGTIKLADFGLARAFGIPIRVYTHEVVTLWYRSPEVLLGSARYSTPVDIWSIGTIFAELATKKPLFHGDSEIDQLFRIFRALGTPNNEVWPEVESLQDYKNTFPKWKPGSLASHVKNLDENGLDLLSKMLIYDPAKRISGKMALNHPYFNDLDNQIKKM
Sequence of CDK1/A2 (P20248 whole entry partner, species assumed): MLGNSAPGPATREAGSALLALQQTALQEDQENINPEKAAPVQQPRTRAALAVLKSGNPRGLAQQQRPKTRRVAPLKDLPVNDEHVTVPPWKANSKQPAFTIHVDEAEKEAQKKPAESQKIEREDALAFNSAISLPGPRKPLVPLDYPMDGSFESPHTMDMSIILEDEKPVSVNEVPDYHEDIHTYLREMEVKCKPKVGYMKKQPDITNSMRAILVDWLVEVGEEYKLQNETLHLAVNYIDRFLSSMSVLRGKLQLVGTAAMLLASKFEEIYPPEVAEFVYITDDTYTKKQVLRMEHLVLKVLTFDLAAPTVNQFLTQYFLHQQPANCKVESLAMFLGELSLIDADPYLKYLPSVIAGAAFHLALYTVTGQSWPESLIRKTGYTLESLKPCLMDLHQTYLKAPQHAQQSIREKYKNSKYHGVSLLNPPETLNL
Sequence of PLK1 (P53350 whole entry, species assumed): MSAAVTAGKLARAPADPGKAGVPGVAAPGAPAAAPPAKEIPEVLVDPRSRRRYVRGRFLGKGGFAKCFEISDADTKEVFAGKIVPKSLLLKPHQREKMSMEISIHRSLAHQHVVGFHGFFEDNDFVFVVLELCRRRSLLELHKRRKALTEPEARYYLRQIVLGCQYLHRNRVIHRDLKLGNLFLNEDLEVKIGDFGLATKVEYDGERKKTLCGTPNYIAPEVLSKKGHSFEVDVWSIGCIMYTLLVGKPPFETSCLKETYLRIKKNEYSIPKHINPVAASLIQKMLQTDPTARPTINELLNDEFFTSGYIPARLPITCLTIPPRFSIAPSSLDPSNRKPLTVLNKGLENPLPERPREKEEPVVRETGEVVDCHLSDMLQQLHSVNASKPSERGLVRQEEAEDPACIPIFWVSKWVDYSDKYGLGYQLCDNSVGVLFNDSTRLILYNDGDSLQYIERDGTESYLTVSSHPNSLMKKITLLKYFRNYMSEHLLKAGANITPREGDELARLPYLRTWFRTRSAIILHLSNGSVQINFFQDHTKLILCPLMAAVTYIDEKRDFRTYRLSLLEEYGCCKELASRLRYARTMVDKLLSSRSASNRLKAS

| inhibition at 1 µM (CDK1/A2) [%] | inhibition at 10 µM (CDK1/A2) [%] | Inhibition activity (%) AURORA (AURORA; 1 µM) [%] | Inhibition activity (%) AURORA (AURORA; 10 µM) [%] | inhibition at 1 µM (PDK1) [%] | inhibition at 10 µM (PDK1) [%] | inhibition at 1 µM (PLK1) [%] | inhibition at 10 µM (PLK1) [%] | inhibition at 1 µM (PIM1) [%] | inhibition at 10 µM (PIM1) [%] | inhibition at 1 µM (RIPK3) [%] | inhibition at 10 µM (RIPK3) [%] | inhibition of CDK1/A2, in words (CDK1/A2; at 1 μM) | Structure (SMILES) | release of LDH, in words (A875 cells [1]) | cytotoxic effect / inhibition activity in words [2] | dose-response analysis of cell growth inhibition, in words ([2]; SGC-7901, A875, HepG2, MARC145) | IC50 ([2]; SGC-7901, A875, HepG2, MARC145, read-out: IC50 values, span over the tested cell lines) [µM] | inhibition activity in preliminary screening, in words [2] | apoptotic rate (A875 cells [3]) [%] | apoptosis induction, in words (A875 cells [3]) |
| --- | --- | --- | --- | --- | --- | --- | --- | --- | --- | --- | --- | --- | --- | --- | --- | --- | --- | --- | --- | --- |
| 1.55 | -3.82 | 4.35 | 7.74 | 10.3 | 10.1 | 5.21 | -0.95 | 12.8 | 15.8 | -1.37 | 16.8 | – | O=C(Nc1cccc(C(F)(F)F)c1)c1cccnc1Nc1cccc(C(F)(F)F)c1 [C6, N-(3-(Trifluoromethyl)phenyl)-2-((3-(trifluoromethyl)phenyl)amino)nicotinamide] | significantly increased | good cytotoxic effect; also recorded: higher inhibition activities compared to the control 5-FU | significant concentration dependence | 5.53 to 12.8 | good inhibition activity | 12 | induced apoptotic changes |
| 38.2 | -7.23 | 9.65 | 12.58 | 20.3 | 10.9 | 7.32 | 2.02 | 23.1 | 10.3 | 2.34 | 10.4 | some inhibitions | O=C(Nc1ccc(Cl)nc1)c1cccnc1Nc1cccc(C(F)(F)F)c1 [C11, N-(6-Chloropyridin-3-yl)-2-((3-(trifluoromethyl)phenyl)amino)nicotinamide] | significantly increased | good cytotoxic effect; also recorded: higher inhibition activities compared to the control 5-FU | significant concentration dependence | – | good inhibition activity | 27 | induced apoptotic changes |
